Literature values in US9138422B2, “Method of using antimycin A to downregulate Wnt/b-catenin pathway to treat gefitinib resistant cancer” (priority 2011, dated 2015).
Read-outs that look alike come from different tables or passages of the source.

Test system: NSCLC (lung adenocarcinoma) patients
Conditions: cited from earlier work

In the case of `C#Cc1cccc(Nc2ncnc3cc(OCCOC)c(OCCOC)cc23)c1` [erlotinib], the “median progression free survival” value (second line treatment after chemotherapy) is given as 2.2 months.
For `COc1cc2ncnc(Nc3ccc(F)c(Cl)c3)c2cc1OCCCN1CCOCC1` [gefitinib], the “median progression free survival” value (first-line treatment, sensitive EGFR mutated patients) is given as “about 10 months”.
